Assay results taken from ChEMBL document CHEMBL1144305, “Benzimidazole derivatives as novel nonpeptide luteinizing hormone-releasing hormone (LHRH) antagonists. Part 2: Benzimidazole-5-sulfonamides” (Bioorg Med Chem Lett, 2005).

What was measured:
[1] = target: T1, Gonadotropin-releasing hormone receptor (Rattus norvegicus, UniProt P30969); assay: Inhibitory concentration towards rat leutinizing releasing hormone receptor
T1 sequence (P30969 whole entry): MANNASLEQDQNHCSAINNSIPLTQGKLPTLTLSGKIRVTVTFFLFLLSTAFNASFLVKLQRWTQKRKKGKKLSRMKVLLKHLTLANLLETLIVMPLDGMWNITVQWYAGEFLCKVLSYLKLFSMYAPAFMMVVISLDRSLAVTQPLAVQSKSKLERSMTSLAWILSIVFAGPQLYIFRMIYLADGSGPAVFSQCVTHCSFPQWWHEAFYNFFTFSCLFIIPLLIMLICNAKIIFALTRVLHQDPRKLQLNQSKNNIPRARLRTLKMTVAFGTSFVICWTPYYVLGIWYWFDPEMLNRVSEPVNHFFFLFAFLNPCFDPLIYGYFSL

[2] = target: T2, Gonadotropin-releasing hormone receptor (Homo sapiens, UniProt P30968); assay: Inhibitory concentration towards human leutinizing releasing hormone receptor
T2 sequence (P30968 whole entry): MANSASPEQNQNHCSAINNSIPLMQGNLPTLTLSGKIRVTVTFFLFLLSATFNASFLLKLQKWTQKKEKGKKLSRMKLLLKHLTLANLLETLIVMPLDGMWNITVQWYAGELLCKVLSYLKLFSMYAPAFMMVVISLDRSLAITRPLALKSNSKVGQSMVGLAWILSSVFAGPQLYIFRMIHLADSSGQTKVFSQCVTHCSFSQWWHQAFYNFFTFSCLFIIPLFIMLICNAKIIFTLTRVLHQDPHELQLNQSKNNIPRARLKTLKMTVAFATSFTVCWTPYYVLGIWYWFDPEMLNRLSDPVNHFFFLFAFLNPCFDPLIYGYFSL

SMILES | IC50 [1] [nM] | IC50 [2] [nM]
CC(C)(C)NC(=O)NCCc1nc2cc(S(=O)(=O)NCc3ccc(Cl)cc3)ccc2n1Cc1ccccc1 | 3.9 | 4.2
O=C(NCCc1nc2cc(S(=O)(=O)NCc3ccc(F)cc3)ccc2n1Cc1ccccc1)Nc1ccccc1F | 53 | 66
NCCc1nc2cc(S(=O)(=O)NCc3ccc(F)cc3)ccc2n1Cc1ccccc1 | > 10000 | > 10000
CC(C)(C)NC(=O)NCCCc1nc2cc(S(=O)(=O)NCc3ccc(F)cc3)ccc2n1Cc1ccccc1 | 83 | 180
CC(C)(C)NC(=O)NCCc1nc2cc(S(=O)(=O)NCc3ccccc3F)ccc2n1Cc1ccccc1 | 450 | 750
CCCc1nc2cc(S(=O)(=O)NCc3ccc(F)cc3)ccc2n1Cc1ccccc1 | > 10000 | > 10000
O=C(NCCc1nc2cc(S(=O)(=O)NCc3ccc(F)cc3)ccc2n1Cc1ccccc1)Nc1ccccc1Cl | 50 | 83
CC(C)(C)NC(=O)NCCc1nc2cc(S(=O)(=O)NCc3ccc(C(F)(F)F)c(F)c3)ccc2n1Cc1ccccc1 | 51 | 57
CC(C)(C)CNC(=O)NCCc1nc2cc(S(=O)(=O)NCc3ccc(F)cc3)ccc2n1Cc1ccccc1 | 30 | 110
O=S(=O)(NCc1ccc(F)cc1)c1ccc2c(c1)nc(C1CC1)n2Cc1ccccc1 | 1600 | 1900
CC(C)(C)OC(=O)NCCc1nc2cc(S(=O)(=O)NCc3ccc(F)cc3)ccc2n1Cc1ccccc1 | 540 | 740
CC(C)(C)NC(=O)CCCc1nc2cc(S(=O)(=O)NCc3ccc(F)cc3)ccc2n1Cc1ccccc1 | 230 | 400
CC(C)(C)CC(=O)NCCc1nc2cc(S(=O)(=O)NCc3ccc(F)cc3)ccc2n1Cc1ccccc1 | 840 | 2600
CC(C)(C)NC(=O)NCCc1nc2cc(S(=O)(=O)NCc3ccccc3)ccc2n1Cc1ccccc1 | 310 | 490
CCNC(=O)NCCc1nc2cc(S(=O)(=O)NCc3ccc(F)cc3)ccc2n1Cc1ccccc1 | 380 | 690
CC(C)(C)NC(=O)NCCc1nc2cc(S(=O)(=O)NCc3ccc(F)cc3)ccc2n1Cc1ccccc1 | 12 | 20
COc1ccc(CNS(=O)(=O)c2ccc3c(c2)nc(CCNC(=O)NC(C)(C)C)n3Cc2ccccc2)cc1 | 200 | 340
CC(C)(C)NC(=O)NCCc1nc2cc(S(=O)(=O)NCc3ccc(F)c(F)c3)ccc2n1Cc1ccccc1 | 110 | 170
CC(C)NC(=O)NCCc1nc2cc(S(=O)(=O)NCc3ccc(F)cc3)ccc2n1Cc1ccccc1 | 79 | 150
CC(C)c1nc2cc(S(=O)(=O)NCc3ccc(F)cc3)ccc2n1Cc1ccccc1 | 690 | 390
CC(C)(C)NC(=O)NCCc1nc2cc(S(=O)(=O)NCc3ccc(Cl)cc3Cl)ccc2n1Cc1ccccc1 | 14 | 22
